From patent US20100279941A1, “CD36 MODULATION AND USES THEREOF” (priority 2009, published 2010)

How the values were obtained:
Format in all cases: in vivo
[1] = tested on: circulating blood leukocytes; assay: Opsonized zymosan-stimulated luminol-enhanced whole blood chemiluminescence; conditions: 48 hours reperfusion; CD36^+/+ mice; 10-week pretreatment; p<0.05
Method: (§1) Experimental model of IHD: Transient left coronary artery ligation in vivo. Mice were subjected to a transient LCAL surgery as described before, with minor modifications [Tarnayski et al., 2004]. Mice were injected i.p. with buprenorphine (0.05 mg/kg) and placed in an induction chamber with inhalation anesthesia comprised of 3% isoflurane mixed with 100% oxygen. Mice were intubated with a blunt ended 20-gauge catheter into the trachea via the mouth and mechanically ventilated at a tidal volume of 7 ml/kg at 130 respirations/min with a MiniVent™ mouse ventilator (model 845, Harvard Apparatus, Saint-Laurent, QC, Canada). Anesthesia was maintained with 1.5-2% isoflurane and the animals were kept warm using electrical heating pads during the surgical procedure. The chest was opened by a horizontal incision through the skin and muscle layers at the third intercostal space exposing the left side of the heart. […] Visual blanching distal to the coronary occlusion confirmed myocardial ischaemia. Lidocaine (6 mg/kg) was administered i.p. just following occlusion and prior to reperfusion. After 30 minutes, the PE10 tubing was removed allowing reperfusion. […]
Whole blood chemiluminescence. […] The chemiluminescence signals were recorded using a computer-assisted luminometer (model 500; Chronolog Corp, Havertown, Pa., USA). Chemiluminescence intensities were measured as the peak amplitude in arbitrary units.

[2] = tested on: CD36^+/+ and CD36^−/− mice; assay: Myocardial oxidative metabolism by μPET with [11C]-acetate; conditions: in words
Method: as §1, with “reperfusion.” for “reperfusion. After 30 minutes, the PE10 tubing was removed allowing reperfusion.”
(§2) Imaging Data Analysis. For [^11C]-acetate images, dynamic series of 25 frames each were sorted out whereas 27 frames were used for ^18FDG and ^18FTHA imaging, and were reconstructed and analyzed using multicompartmental analysis [Menard et al., 2009] or the Patlak method for FTHA [Patlak and Blasberg, 1985]. […]

[3] = tested on: CD36^+/+ and CD36^−/− mice; assay: Myocardial NEFA uptake by μPET with [18F]-FTHA; conditions: 6 hours reperfusion, in words
Method: Experimental model of IHD: Transient left coronary artery ligation in vivo. Mice were subjected to a transient LCAL surgery as described before, with minor modifications [Tarnayski et al., 2004]. Mice were injected i.p. with buprenorphine (0.05 mg/kg) and placed in an induction chamber with inhalation anesthesia comprised of 3% isoflurane mixed with 100% oxygen. Mice were intubated with a blunt ended 20-gauge catheter into the trachea via the mouth and mechanically ventilated at a tidal volume of 7 ml/kg at 130 respirations/min with a MiniVent™ mouse ventilator (model 845, Harvard Apparatus, Saint-Laurent, QC, Canada). Anesthesia was maintained with 1.5-2% isoflurane and the animals were kept warm using electrical heating pads during the surgical procedure. The chest was opened by a horizontal incision through the skin and muscle layers at the third intercostal space exposing the left side of the heart. […] Visual blanching distal to the coronary occlusion confirmed myocardial ischaemia. Lidocaine (6 mg/kg) was administered i.p. just following occlusion and prior to reperfusion. After 30 minutes, the PE10 tubing was removed allowing reperfusion. The lungs were reinflated and the chest wound closed layer by layer before extubation. At 6 hours following reperfusion, mice were anesthetized (isoflurane), a blood sample withdrawn, and the heart arrested in diastole by an intravenous injection of 1 M KCl (0.5 mL). Hearts were immediately frozen at −80° C. unless otherwise stated.
Imaging experiments. Imaging experiments were performed with the avalanche photodiode-based small animal PET scanner (μPET) [Lecomte et al., 1996]. […]
as §2
Plasma and tissue assays. Plasma insulin, triglyceride (TG) and NEFA levels were measured as previously described [Menard et al., 2009]. […]

[4] = tested on: CD36^+/+ and CD36^−/− mice; assay: Myeloperoxidase assay of myocardial leukocyte accumulation; conditions: 48 hours reperfusion; CD36-dependent (CD36^+/+ mice); 10-week pretreatment; p<0.05
Method: Experimental model of IHD: Transient left coronary artery ligation in vivo. Mice were subjected to a transient LCAL surgery as described before, with minor modifications [Tarnayski et al., 2004]. Mice were injected i.p. with buprenorphine (0.05 mg/kg) and placed in an induction chamber with inhalation anesthesia comprised of 3% isoflurane mixed with 100% oxygen. Mice were intubated with a blunt ended 20-gauge catheter into the trachea via the mouth and mechanically ventilated at a tidal volume of 7 ml/kg at 130 respirations/min with a MiniVent™ mouse ventilator (model 845, Harvard Apparatus, Saint-Laurent, QC, Canada). Anesthesia was maintained with 1.5-2% isoflurane and the animals were kept warm using electrical heating pads during the surgical procedure. The chest was opened by a horizontal incision through the skin and muscle layers at the third intercostal space exposing the left side of the heart. […] Visual blanching distal to the coronary occlusion confirmed myocardial ischaemia. Lidocaine (6 mg/kg) was administered i.p. just following occlusion and prior to reperfusion. After 30 minutes, the PE10 tubing was removed allowing reperfusion. The lungs were reinflated and the chest wound closed layer by layer before extubation. […]
Myeloperoxidase assay. […] The numbers of PMN per left ventricle were calculated from the standard curves.

Substance: HAIC-2MeDTrp-DLys-Trp-DPhe-Lys-NH2 [EP 80317]
- reduction of circulating blood leukocyte priming and/or activation [1]: 53%
- myocardial oxidative metabolism (k2) ([2]; CD36^+/+ mice pre-treated): reduced
- myocardial oxidative metabolism (k2) ([2]; CD36^−/− mice): unaffected
- total plasma NEFA uptake (Km) ([3]; CD36^+/+ mice): reduced
- mean fractional uptake rate (Ki) of plasma NEFA ([3]; CD36^+/+ or CD36^−/− mice): not affected
- net fatty acid uptake (Km) ([3]; CD36^−/− mice): not modulated
- reduction in myocardial leukocyte accumulation [4]: 53%
